# From patent US10669310B2, “Peptide for cancer treatment and pharmaceutical composition containing same” (TOKUSHIMA UNIVERSITY, priority 2016, dated 2020)
# Where two headings read alike, the source gives them in different places. *1 amine or outer side, *2 acyl side, *3 side chain or, on linkers, in order; H or OH if unused. Where a SMILES comes first, the peptide text is derived from it. Bridges are numbered along the chain shown (N, C = ends). [ ]: non-standard residue; d: D form. NH(CH2)4NH = C(CCN[*:2])CN[*:1]
# Tests used:
# [1] = type: in vivo; conditions: i.p. every day or every four days, 28 days
# Experimental: KPL-3C cell suspensions (1×10^7 cells/mouse) were mixed with an equal volume of Matrigel (BD) and injected (200 μL in total) into the mammary fat pads of 6-week-old female BALB/c nude mice (Charles River Laboratories, Tokyo, Japan). The mice were housed in a pathogen-free isolation facility with a twelve-hour light/dark cycle and were fed solid rodent chow and water ad libitum. The tumors developed over several days and reached sizes of approximately 100 mm^3 [calculated as ½×(width×length^2)]. The mice were randomized into the following eleven treatment groups (five heads per group):
# E2 was administered via application of a solution to the neck skin, and regarding the other treatments, administration was performed via intraperitoneal injection unless other administration methods are stated. The tumor volume was measured with calipers for 28 days, and then the mice were subjected to scheduled sacrifice to remove tumors. All the experiments were performed in accordance with the guidelines of the animal facility at Tokushima University.
# MCF-7 cells = type: cell-based, human; conditions: for duration of significant cell growth inhibitory effects: 1 μM, E2-dependent growth of MCF-7
# Experimental: (§1) Human breast cancer cell line MCF-7 and mammary epithelial cell line MCF-10A were purchased from American Type Culture Collection (ATCC, Manassas, Va., USA). Breast cancer cell line KPL-3C (J. Kurebayashi, et al., Br. J. Cancer 74, 200-207 (1996)) was kindly provided by Dr. Junichi Kurebayashi (Kawasaki Medical School). All cell lines were monolayer cultured in an appropriate medium supplemented with 10% FBS. The cells were maintained at 37° C. under humidified atmosphere containing 5% CO2.
# (§2) In each experiment, the respective cells were seeded in a 48-well plate (2×10^4 cells/mL), a 6-well plate (3×10^5 cells/mL), or a 10-cm dish (2×10^6 cells/10 mL). MCF-7 cells were seeded in MEM (Thermo Fisher Scientific) supplemented with 10% FBS (Nichirei Biosciences Inc., Tokyo, Japan), 1% Antibiotic/Antimycotic solution (Thermo Fisher Scientific, Waltham, Mass., USA), 0.1 mM NEAA (Thermo Fisher Scientific), 1 mM sodium pyruvate (Thermo Fisher Scientific), and 10 μg/mL insulin (Sigma, St. Louis, Mo., USA). KPL-3C cells were seeded in RPMI (Thermo Fisher Scientific) supplemented with 10% FBS and 1% Antibiotic/Antimycotic solution. MCF-10A cells were seeded in MEBM (Lonza) supplemented with a Single Quots kit (BPE, hydrocortisone, hEGF, insulin, gentamycin/amphoterin-B) (Lonza, Walkersville, Md., USA) and 100 ng/mL cholera toxin. For 17β-estradiol (E2) (Sigma) stimulation, the media for MCF-7 and KPL-3C were changed to phenol red-free DMEM/F12 (Thermo Fisher Scientific) supplemented with 10% FBS, 1% Antibiotic/Antimycotic solution, 0.1 mM NEAA, 1 mM sodium pyruvate, and 10 μg/mL insulin on the day after seeding. Twenty-four hours later, the cells were treated with 10 nM E2 and a peptide (for example, 11R-ERAP or a stapled ERAP), or with 10 nM E2 alone.
# When carrying out treatment with tamoxifen (Sigma) or fulvestrant (LKT laboratories, St. Paul, Minn., USA), cells were treated with 10 nM tamoxifen or 2 μM fulvestrant simultaneously with the above-mentioned treatment with E2 and a peptide or with E2 alone.
# Cell growth assays on MCF-7, KPL-3C, and MCF-10A were carried out as described previously using a Cell Counting Kit-8 (CCK-8) (Dojindo, Kumamoto, Japan) (T. Yoshimaru, et al., Nat. Commun. 4, 2443 (2013)). The data are shown by mean±SE of three independent experiments.
# BIG3-PHB2 interaction = biological target: T1, BIG3-PHB2 interaction (Homo sapiens, UniProt Q99623); experiment: Co-immunoprecipitation with anti-BIG3 antibody in MCF-7 cells; type: cell-based; conditions: MCF-7, 1 μM, 24 hours after treatment
# T1 construct: complex formation between the endogenous BIG3 and PHB2 in ERα-positive breast cancer cell line MCF-7; endogenous in cells; host or cells: MCF-7
# Experimental: Immunoblot analyses were performed as described previously (T. Yoshimaru, et al., Nat. Commun. 4, 2443 (2013)). After performing SDS-PAGE, the membranes blotted with proteins were blocked with 4% BlockAce solution (Dainippon Pharmaceutical, Osaka, Japan) for three hours and then incubated with antibodies against the following proteins: BIG3 (1:1,000) (T. Yoshimaru, et al., Nat. Commun. 4, 2443 (2013)); PHB2 (1:1,000) (Abeam, Cambridge, UK); Akt, phosphorylated Akt (S473) (587F11, 1:1,000); p44/42 MAPK, phosphorylated p44/42 MAPK (T202/Y204) (1:1,000); α/β-tubulin (1:1,000) (Cell Signaling Technology, Danvers, Mass., USA); and LMNB1 (1:100) (Sigma). After incubation with an HRP-labeled secondary antibody (anti-mouse IgG-HRP, 1:5,000; anti-rat IgG-HRP; 1:5,000; or anti-rabbit IgG-HRP, 1:1,000) (Santa Cruz Biotechnology, Dallas, Tex., USA) for one hour, the blots were developed with an Enhanced Chemiluminescence (ECL) system (GE Healthcare, Buckinghamshire, UK) and scanned using an Image Reader LAS-3000 mini (Fujifilm, Tokyo, Japan). All the experiments were performed at least in triplicate.
# Immunoprecipitation analysis was performed as described previously (T. Yoshimaru, et al., Nat. Commun. 4, 2443 (2013)). Cell lysates were pre-cleared with normal IgG and rec-Protein G Sepharose 4B (Thermo Fisher Scientific) at 4° C. for three hours. Then, the supernatants were incubated with 5 μg of an antibody against BIG3 or an antibody against PHB2 at 4° C. for twelve hours. Next, the antigen-antibody complexes were precipitated using rec-Protein G Sepharose 4B at 4° C. for one hour. The immunoprecipitated protein complexes were washed several times with a lysis buffer. Then, SDS-PAGE and immunoblot analyses were carried out as described above.
# [2] = In vitro blood-brain barrier permeability test; type: in vitro ADME
# Experimental: BIG3 is expressed in the brain though expression is weak (Kim, J. W. et al., Cancer Sci. 100, 1468-1478 (2009)). Then, since there were concerns of side effects due to the transfer of stapled ERAP to the brain, blood-brain-barrier permeability test was carried out on stapled ERAP. Blood-brain-barrier permeability of stapled ERAP (No. 12) was examined by placing stapled ERAP (No. 12) to the inner side (vascular cavity side) of the insert of a blood-brain barrier permeability kit, and measuring the concentration of stapled ERAP (No. 12) that passed through a filter specialized for intracerebral transferability assay and leaked into the well (cerebral parenchyma side) of the plate in 30 minutes. The permeability coefficient (Papp) at this time was calculated (2 or less: very low permeability; 2 to 10: low permeability; 10 to 20: high permeability; and 20 or higher: very high permeability).
# MCF-10A cells = experiment: Cell growth (MTT) assay, MCF-10A cells; type: cell-based, human; conditions: normal mammary epithelial cells, ERα-negative and BIG3-negative
# Experimental: as §1
# as §2, with “For 17β-estradiol (E2) (Sigma) stimulation, the media for MCF-7 and KPL-3C were changed to phenol red-free DMEM/F12 (Thermo Fisher Scientific) supplemented with 10% FBS, 1% Antibiotic/Antimycotic solution, 0.1 mM NEAA, 1 mM sodium pyruvate, and 10 μg/mL insulin on the day after seeding. Twenty-four hours later, the cells were treated with 10 nM E2 and a peptide (for example, 11R-ERAP or a stapled ERAP), or with 10 nM E2 alone.” left out
# T1 sequence (Q99623 2-299 limits assumed): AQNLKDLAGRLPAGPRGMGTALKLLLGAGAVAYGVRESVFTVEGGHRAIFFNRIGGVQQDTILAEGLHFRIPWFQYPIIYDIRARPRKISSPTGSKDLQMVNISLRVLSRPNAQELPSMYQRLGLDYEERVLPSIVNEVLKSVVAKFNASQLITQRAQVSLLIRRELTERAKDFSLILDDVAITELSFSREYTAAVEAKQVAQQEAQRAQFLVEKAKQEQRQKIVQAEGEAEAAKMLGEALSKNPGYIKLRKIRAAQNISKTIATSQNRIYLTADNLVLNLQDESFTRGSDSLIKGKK
molecule,measurement,setting,value
"CSCC[C@H](NC(=O)[C@H](CCC(N)=O)NC(=O)CNC(=O)CNC(=O)CNC(=O)[C@H](CCCNC(=N)N)NC(=O)[C@H](CCCNC(=N)N)NC(=O)[C@H](CCCNC(=N)N)NC(=O)[C@H](CCCNC(=N)N)NC(=O)[C@H](CCCNC(=N)N)NC(=O)[C@H](CCCNC(=N)N)NC(=O)[C@H](CCCNC(=N)N)NC(=O)[C@H](CCCNC(=N)N)NC(=O)[C@H](CCCNC(=N)N)NC(=O)[C@H](CCCNC(=N)N)NC(=O)[C@@H](N)CCCNC(=N)N)C(=O)N[C@@H](CC(C)C)C(=O)N[C@@H](CO)C(=O)N[C@@H](CC(=O)O)C(=O)N[C@@H](CC(C)C)C(=O)N[C@H](C(=O)N[C@@H](CC(C)C)C(=O)N[C@@H](CCC(N)=O)C(=O)N[C@@H](CC(C)C)C(=O)N[C@@H](CCCNC(=N)N)C(=O)N[C@@H](CCC(N)=O)C(=O)N[C@@H](CCCNC(=N)N)C(=O)O)[C@@H](C)O [11R-ERAP, 11R-GGG-QMLSDLTLQLRQR, reference compound] (H-RRRRRRRRRRRGGGQMLSDLTLQLRQR-OH; N-terminus and C-terminus assumed)","toxicity, body weight",[1],No toxicity or significant body weight decrease
same,inhibition rate of E2-dependent growth,MCF-7 cells,45%
same,IC50,MCF-7 cells; 96 h,7.97 µM
CSCC[C@H](NC(=O)[C@@H](N)CCC(N)=O)C(=O)N[C@@H](CC(C)C)C(=O)N[C@@H](CO)C(=O)N[C@@H](CC(=O)O)C(=O)N[C@@H](CC(C)C)C(=O)N[C@H](C(=O)N[C@@H](CC(C)C)C(=O)N[C@@H](CCC(N)=O)C(=O)N[C@@H](CC(C)C)C(=O)N[C@@H](CCCNC(=N)N)C(=O)N[C@@H](CCCNC(=N)N)C(=O)N[C@@H](CCCNC(=N)N)C(=O)N[C@@H](CCCNC(=N)N)C(=O)N[C@@H](CCCNC(=N)N)C(=O)N[C@@H](CCCNC(=N)N)C(=O)N[C@@H](CCCNC(=N)N)C(=O)N[C@@H](CCCNC(=N)N)C(=O)O)[C@@H](C)O [QMLSDLTLQL-8R] (H-QMLSDLTLQLRRRRRRRR-OH; N-terminus and C-terminus assumed),IC50,MCF-7 cells,7.98 µM
CSCC[C@H](NC(=O)[C@@H](N)CCC(N)=O)C(=O)N[C@@H](CC(C)C)C(=O)N[C@@H](CO)C(=O)N[C@@H](CC(=O)O)C(=O)N[C@@H](CC(C)C)C(=O)N[C@H](C(=O)N[C@@H](CC(C)C)C(=O)N[C@@H](CCC(N)=O)C(=O)N[C@@H](CC(C)C)C(=O)N[C@@H](CCCNC(=N)N)C(=O)N[C@@H](CCC(N)=O)C(=O)N[C@@H](CCCNC(=N)N)C(=O)N[C@@H](CCCNC(=N)N)C(=O)N[C@@H](CCCNC(=N)N)C(=O)N[C@@H](CCCNC(=N)N)C(=O)N[C@@H](CCCNC(=N)N)C(=O)N[C@@H](CCCNC(=N)N)C(=O)N[C@@H](CCCNC(=N)N)C(=O)N[C@@H](CCCNC(=N)N)C(=O)N[C@@H](CCCNC(=N)N)C(=O)O)[C@@H](C)O [QMLSDLTLQLRQR-8R] (H-QMLSDLTLQLRQRRRRRRRRR-OH; N-terminus and C-terminus assumed),IC50,MCF-7 cells,7.78 µM
CSCC[C@@H](NC(=O)[C@H]1CCC(=O)NCCCCNC(=O)CC[C@@H](NC(C)=O)C(=O)N[C@H](CC(C)C)C(=O)N[C@H](CC(=O)O)C(=O)N[C@H](CO)C(=O)N1)C(=O)N[C@H](CCC(N)=O)C(N)=O [shRI stapled ERAP No. 12] (Ac-[dE][dL][dD][dS][dE][dM][dQ]-NH2; linker 1-5 via NH(CH2)4NH; N-terminus and C-terminus assumed),inhibition of endogenous BIG3-PHB2 complex formation,BIG3-PHB2 interaction,inhibited endogenous BIG3-PHB2 complex formation
same,duration of significant cell growth inhibitory effects,MCF-7 cells,seven
same,IC50,MCF-7 cells; 96 h,0.53 µM
CSCC[C@H](NC(=O)[C@H](CCC(N)=O)NC(C)=O)C(=O)N[C@H]1CCC(=O)NCCCCNC(=O)CC[C@@H](C(=O)N[C@@H](CC(C)C)C(=O)N[C@@H](CCC(N)=O)C(=O)N[C@@H](CC(C)C)C(=O)N[C@@H](CCCNC(=N)N)C(=O)N[C@@H](CCC(N)=O)C(=O)N[C@@H](CCCNC(=N)N)C(N)=O)NC(=O)[C@H](CC(C)C)NC(=O)[C@H](CC(=O)O)NC(=O)[C@H](CO)NC1=O [stapled ERAP No. 12],"Papp at 30 min, 30 μM",[2]; 30 μM,0.177 ×10⁻⁶ cm/s
same,Papp at 30 min,"[2]; 30 minutes, 2 or less: very low permeability, read-out: blood-brain barrier permeability coefficient (Papp)",≤ 2 ×10⁻⁶ cm/s
same,"recovery at 30 minutes, 10 μM","[2]; not told, 10 μM, read-out: Recovery Rate",0%
same,"recovery at 30 minutes, 30 μM","[2]; not told, 30 μM, read-out: Recovery Rate",0.01%
same,"toxicity, body weight",[1],No toxicity or significant body weight decrease
same,IC50,MCF-7 cells; 96 h,0.59 µM
CSCC[C@@H](NC(=O)[C@@H](CCC(N)=O)NC(C)=O)C(=O)N[C@@H]1CCC(=O)NCCCCNC(=O)CC[C@H](C(=O)N[C@H](CC(C)C)C(=O)N[C@H](CCC(N)=O)C(=O)N[C@H](CC(C)C)C(=O)N[C@H](CCCNC(=N)N)C(=O)N[C@H](CCC(N)=O)C(=O)N[C@H](CCCNC(=N)N)C(N)=O)NC(=O)[C@@H](CC(C)C)NC(=O)[C@@H](CC(=O)O)NC(=O)[C@@H](CO)NC1=O [stapled-D-ERAP No. 12],effect on MCF-10A cell growth,MCF-10A cells,not inhibited
same,inhibition of endogenous BIG3-PHB2 complex formation,BIG3-PHB2 interaction,inhibited endogenous BIG3-PHB2 complex formation
same,duration of significant cell growth inhibitory effects,MCF-7 cells,seven
same,IC50,MCF-7 cells; 96 h,0.44 µM
"QMLSDLTLQLRQR (PHB2-binding peptide derived from BIG3) [ERAP, reference compound]",effect on E2-dependent MCF-7 cell growth,MCF-7 cells,did not show effects
